Holding throughout (assay): Affinity-purification and mass spectrometry (AP-MS) chemical proteomics, all proteins;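 on Difference: 200 µM free competitor with 20 µM biotin probe overnight in lysate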
What all share (type): binding

Assay [1] deals with T1, proteins displaced from immobilized biotin-Cmpd 1 pulldowns (U2OS cell lysate) (Homo sapiens, UniProt P55072).
T1 construct: endogenous in cells; host or cells: U2OS
Conditions: GN=VCP (P55072). As for the experimental part:
(§1) The samples for AP-MS were prepared following pulldown procedure as previously described with minor modifications. Briefly, U2OS cells were lysed in RIPA buffer and the cell lysate was equally divided into two groups: (1) DMSO group (control group): the cell lysate was incubated with 20 μM biotin-labeled compound 1; (2) Cpmd 1 group (sample group): the cell lysate was incubated with 20 μM biotin-labeled compound 1 and 200 μM free compound 1. Each group contains three biological replicates. They were incubated overnight at 4 °C, then 30 μL streptavidin beads (Thermo Fisher, 20353) was added and incubated at 4 °C for 1 h. The beads were then washed with RIPA buffer for 3 times, 10 min/time.
(§2) Beads were rinsed twice with 50 mM TEAB, pH 7.55, before eluting proteins with 25 μL of 5% SDS, 50 mM TEAB, pH 7.55. The sample was then centrifuged at 17,000 × g for 10 min to remove any debris. Proteins were reduced with 20 mM TCEP (Thermo Fisher, 77720) and incubated at 65 °C for 30 min. The sample was cooled to room temperature and 1 μL of 0.5 M iodoacetamide acid was added and allowed to react for 20 min in dark. Phosphoric acid (12%, 2.75 μL) was added to the protein solution, followed by adding 165 μL of binding buffer (90% methanol, 100 mM TEAB, pH 7.1). The resulting solution was added to S-Trap spin column (protifi.com) and passed through the column using a bench top centrifuge (30 s spin at 4000 × g). The spin column was washed with 400 μL of binding buffer and centrifuged. This step was repeated two more times. Then trypsin was added to the protein mixture at a mass ratio of 1:25 in 50 mM TEAB, pH 8.0, and the sample was incubated at 37 °C for 4 h. Peptides were eluted with 80 μL of 50 mM TEAB, followed by 80 μL of 0.2% formic acid, and finally 80 μL of 50% acetonitrile, 0.2% formic acid. The combined peptide solution was then dried in a speed vac and resuspended in 2% acetonitrile, 0.1% formic acid, 97.9% water and placed in an autosampler vial.
(§3) Samples were analyzed by nanoLC-MS/MS (nanoRSLC, Thermo Fisher) using an Aurora series (Ion Opticks) reversed phase HPLC column (25 cm length × 75 µm inner diameter) and directly injected to an Orbitrap Eclipse (Thermo Fisher) using a 120 min gradient (mobile phase A = 0.1% formic acid, mobile phase B = 99.9% acetonitrile with 0.1% formic acid; hold 2% B for 5 min, 2–6% B in 0.1 min, 6–25% in 100 min, 25–50% in 15 min) at a flow rate of 350 nL/min. Eluted peptide ions were analyzed using a data-dependent acquisition (DDA) method with resolution settings of 120,000 and 15,000 (at m/z 200) for MS1 and MS2 scans, respectively. DDA-selected peptides were fragmented using stepped high energy collisional dissociation (27, 32, and 37%).
(§4) The data of AP-MS were analyzed as a previously described method with minor modifications. Briefly, the raw MS files were searched with MaxQuant software (version 1.6.1.1, www.maxquant.org)[56] against the UniProt human protein database (www.uniprot.org) concatenated with common contaminants and the decoy database. The mass tolerance for precursor ions was set to 20 ppm and 4.5 ppm for the first and main search, respectively. The cysteine carbamidomethylation was set as fixed modification and methionine oxidation and N-terminal acetylation as variable modifications. Enzyme specificity was set to trypsin and a maximum missed cleavage was set as 2. The 1% false discovery rate (FDR) at both peptide and protein levels was applied for the analysis. Relative protein quantification was based on the label-free quantification incorporated in the MaxQuant software. The iBAQ intensity of proteins was obtained for the control and experimental samples. The missing iBAQ intensity was replaced by a random number, which was calculated from a normal distribution with a width of 0.3 and a downshift of 1.8 defined by Perseus software (version 1.6.5.0). The P-value was calculated by performing two-sample Student’s t-test. […]

Assay [2] deals with T2, proteins displaced from immobilized biotin-Cmpd 1 pulldowns (U2OS cell lysate) (Homo sapiens, UniProt Q13573).
T2 construct: endogenous in cells; host or cells: U2OS
T2 sequence (Q13573 whole entry): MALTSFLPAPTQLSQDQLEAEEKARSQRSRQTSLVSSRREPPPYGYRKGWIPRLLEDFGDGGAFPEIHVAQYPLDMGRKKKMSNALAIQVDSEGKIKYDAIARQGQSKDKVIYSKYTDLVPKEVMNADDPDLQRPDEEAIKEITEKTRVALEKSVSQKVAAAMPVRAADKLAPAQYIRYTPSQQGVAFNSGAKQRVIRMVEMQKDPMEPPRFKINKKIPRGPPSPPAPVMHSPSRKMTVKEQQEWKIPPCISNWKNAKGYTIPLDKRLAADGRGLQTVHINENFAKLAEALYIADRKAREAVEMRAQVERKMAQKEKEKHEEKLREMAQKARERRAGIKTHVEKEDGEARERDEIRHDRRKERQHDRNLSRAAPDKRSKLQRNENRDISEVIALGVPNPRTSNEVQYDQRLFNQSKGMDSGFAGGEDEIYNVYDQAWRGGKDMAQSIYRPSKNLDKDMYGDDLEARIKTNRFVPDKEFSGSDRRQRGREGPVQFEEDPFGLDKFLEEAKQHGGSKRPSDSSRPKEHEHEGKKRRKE
Conditions: GN=SNW1 (Q13573). As for the experimental part: as §1, §2, §3, §4

Assay [3] deals with T3, proteins displaced from immobilized biotin-Cmpd 1 pulldowns (U2OS cell lysate) (Homo sapiens, UniProt Q96DA0).
T3 construct: endogenous in cells; host or cells: U2OS
T3 sequence (Q96DA0 17-172): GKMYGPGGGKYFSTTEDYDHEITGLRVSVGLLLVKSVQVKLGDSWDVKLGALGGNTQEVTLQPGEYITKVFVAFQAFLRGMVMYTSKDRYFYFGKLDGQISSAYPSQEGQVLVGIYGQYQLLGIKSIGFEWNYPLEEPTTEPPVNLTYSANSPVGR
The following applies: GN=ZG16B (Q96DA0). How it is done:
as §1, §2, §3, §4

Assay [4] deals with T4, proteins displaced from immobilized biotin-Cmpd 1 pulldowns (U2OS cell lysate) (Homo sapiens, UniProt P07339).
T4 construct: endogenous in cells; host or cells: U2OS
T4 sequence (P07339 65-412): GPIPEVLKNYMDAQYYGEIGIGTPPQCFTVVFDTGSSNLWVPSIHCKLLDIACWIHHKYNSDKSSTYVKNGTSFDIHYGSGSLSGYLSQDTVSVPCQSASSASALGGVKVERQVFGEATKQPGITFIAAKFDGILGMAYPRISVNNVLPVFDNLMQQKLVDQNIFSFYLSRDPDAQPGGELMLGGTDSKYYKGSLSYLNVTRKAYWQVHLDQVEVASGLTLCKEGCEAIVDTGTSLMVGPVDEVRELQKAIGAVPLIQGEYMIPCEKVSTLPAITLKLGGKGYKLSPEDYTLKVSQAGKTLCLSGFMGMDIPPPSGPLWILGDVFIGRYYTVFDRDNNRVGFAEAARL
The following applies: GN=CTSD (P07339). How it is done:
as §1, §2, §3, §4

The target in assay [5] is T5, proteins displaced from immobilized biotin-Cmpd 1 pulldowns (U2OS cell lysate) (Homo sapiens, UniProt Q14566).
T5 construct: endogenous in cells; host or cells: U2OS
Conditions: GN=MCM6 (Q14566). How it is done:
as §1, §2, §3, §4

The target in assay [6] is T6, proteins displaced from immobilized biotin-Cmpd 1 pulldowns (U2OS cell lysate) (Homo sapiens, UniProt O75683).
T6 construct: endogenous in cells; host or cells: U2OS
T6 sequence (O75683 whole entry): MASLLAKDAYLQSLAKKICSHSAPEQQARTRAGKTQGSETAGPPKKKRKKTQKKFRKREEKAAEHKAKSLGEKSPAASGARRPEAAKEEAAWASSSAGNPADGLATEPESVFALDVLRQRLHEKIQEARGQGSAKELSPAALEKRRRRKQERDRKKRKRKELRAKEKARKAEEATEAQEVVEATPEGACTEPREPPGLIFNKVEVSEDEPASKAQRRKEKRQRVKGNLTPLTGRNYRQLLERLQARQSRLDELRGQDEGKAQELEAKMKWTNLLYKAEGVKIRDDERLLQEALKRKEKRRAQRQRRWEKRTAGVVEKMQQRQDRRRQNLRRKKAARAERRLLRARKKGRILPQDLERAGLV
Conditions: GN=SURF6 (O75683). How it is done:
as §1, §2, §3, §4

Assay [7] concerns the target T7, proteins displaced from immobilized biotin-Cmpd 1 pulldowns (U2OS cell lysate) (Homo sapiens, UniProt P27797).
T7 construct: endogenous in cells; host or cells: U2OS
Conditions: GN=CALR (P27797). As for the experimental part:
as §1, §2, §3, §4

Assay [8] has as its target T8, proteins displaced from immobilized biotin-Cmpd 1 pulldowns (U2OS cell lysate) (Homo sapiens, UniProt P25789).
T8 construct: endogenous in cells; host or cells: U2OS
The following applies: GN=PSMA4 (P25789). As for the experimental part: as §1, §2, §3, §4

Assay [9] deals with T9, proteins displaced from immobilized biotin-Cmpd 1 pulldowns (U2OS cell lysate) (Homo sapiens, UniProt Q02880).
T9 construct: endogenous in cells; host or cells: U2OS
T9 sequence (Q02880 whole entry): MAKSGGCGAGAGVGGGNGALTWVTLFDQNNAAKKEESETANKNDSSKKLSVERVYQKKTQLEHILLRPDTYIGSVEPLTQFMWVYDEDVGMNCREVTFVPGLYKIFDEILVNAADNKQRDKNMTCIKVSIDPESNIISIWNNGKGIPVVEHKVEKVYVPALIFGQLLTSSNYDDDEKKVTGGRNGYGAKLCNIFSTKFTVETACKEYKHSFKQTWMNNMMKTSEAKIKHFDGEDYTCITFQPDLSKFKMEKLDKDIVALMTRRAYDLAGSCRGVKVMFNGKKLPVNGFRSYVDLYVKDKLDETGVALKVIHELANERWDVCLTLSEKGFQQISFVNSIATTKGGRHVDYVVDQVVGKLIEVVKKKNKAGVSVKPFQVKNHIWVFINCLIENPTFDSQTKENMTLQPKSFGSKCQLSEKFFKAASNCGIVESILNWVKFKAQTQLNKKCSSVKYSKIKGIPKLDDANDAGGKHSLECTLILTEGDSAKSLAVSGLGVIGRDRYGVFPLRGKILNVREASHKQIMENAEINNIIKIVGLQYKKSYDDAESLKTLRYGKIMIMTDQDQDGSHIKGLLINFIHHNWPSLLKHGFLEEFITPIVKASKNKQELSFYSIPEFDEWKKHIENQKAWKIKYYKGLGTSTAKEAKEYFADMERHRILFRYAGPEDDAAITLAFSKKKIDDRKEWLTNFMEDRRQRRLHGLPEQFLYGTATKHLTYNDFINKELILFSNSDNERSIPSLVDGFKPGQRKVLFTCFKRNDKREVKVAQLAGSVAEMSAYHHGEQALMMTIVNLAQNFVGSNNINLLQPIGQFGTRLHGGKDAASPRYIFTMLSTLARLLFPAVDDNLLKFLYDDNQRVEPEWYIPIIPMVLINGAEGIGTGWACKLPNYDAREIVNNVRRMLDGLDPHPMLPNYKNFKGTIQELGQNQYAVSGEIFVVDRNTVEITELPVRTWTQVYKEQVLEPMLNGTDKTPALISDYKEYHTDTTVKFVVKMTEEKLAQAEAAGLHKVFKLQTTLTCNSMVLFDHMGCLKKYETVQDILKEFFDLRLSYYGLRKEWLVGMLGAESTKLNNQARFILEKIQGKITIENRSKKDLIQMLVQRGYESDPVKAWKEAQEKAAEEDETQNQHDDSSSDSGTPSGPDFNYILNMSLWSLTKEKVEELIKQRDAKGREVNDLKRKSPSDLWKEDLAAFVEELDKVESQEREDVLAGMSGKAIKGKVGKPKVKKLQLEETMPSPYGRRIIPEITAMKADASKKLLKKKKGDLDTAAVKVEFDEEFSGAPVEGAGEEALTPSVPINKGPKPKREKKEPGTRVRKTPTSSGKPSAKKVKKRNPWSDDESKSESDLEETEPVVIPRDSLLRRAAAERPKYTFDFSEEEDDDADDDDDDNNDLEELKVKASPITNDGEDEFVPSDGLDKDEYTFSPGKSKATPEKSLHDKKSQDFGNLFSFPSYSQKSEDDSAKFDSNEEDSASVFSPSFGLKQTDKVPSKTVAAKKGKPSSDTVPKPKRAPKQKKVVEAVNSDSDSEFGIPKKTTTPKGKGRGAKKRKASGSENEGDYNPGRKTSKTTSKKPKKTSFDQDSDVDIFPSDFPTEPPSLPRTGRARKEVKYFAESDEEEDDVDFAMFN
The following applies: GN=TOP2B (Q02880). How it is done: as §1, §2, §3, §4

Assay [10] concerns the target T10, proteins displaced from immobilized biotin-Cmpd 1 pulldowns (U2OS cell lysate) (Homo sapiens, UniProt Q9BUF5).
T10 construct: endogenous in cells; host or cells: U2OS
Conditions: GN=TUBB6 (Q9BUF5). As for the experimental part:
as §1, §2, §3, §4

Where “and” joins values, the source holds several entries; their conditions need not be identical. Identical values can stand only once.

T8 sequence (P25789 whole entry): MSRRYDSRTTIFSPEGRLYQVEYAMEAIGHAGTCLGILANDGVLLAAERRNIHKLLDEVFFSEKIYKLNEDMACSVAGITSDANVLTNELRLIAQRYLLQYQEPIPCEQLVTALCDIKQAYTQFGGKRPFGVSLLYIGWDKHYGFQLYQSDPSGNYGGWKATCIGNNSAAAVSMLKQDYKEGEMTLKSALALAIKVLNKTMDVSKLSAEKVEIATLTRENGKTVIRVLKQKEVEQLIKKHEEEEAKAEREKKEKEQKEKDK
T10 sequence (Q9BUF5 whole entry): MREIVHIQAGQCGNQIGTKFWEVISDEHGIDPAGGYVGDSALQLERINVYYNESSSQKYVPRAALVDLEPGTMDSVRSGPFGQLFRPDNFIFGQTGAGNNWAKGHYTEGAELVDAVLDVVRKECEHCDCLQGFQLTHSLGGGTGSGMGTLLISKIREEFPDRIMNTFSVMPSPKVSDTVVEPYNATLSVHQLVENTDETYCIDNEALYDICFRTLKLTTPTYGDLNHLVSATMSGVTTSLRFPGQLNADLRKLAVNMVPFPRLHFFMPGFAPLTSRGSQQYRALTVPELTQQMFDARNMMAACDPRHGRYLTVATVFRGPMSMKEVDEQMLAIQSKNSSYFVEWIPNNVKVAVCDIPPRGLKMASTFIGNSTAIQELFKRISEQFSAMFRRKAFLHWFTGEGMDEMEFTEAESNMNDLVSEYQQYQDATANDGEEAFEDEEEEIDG
T1 sequence (P55072 whole entry): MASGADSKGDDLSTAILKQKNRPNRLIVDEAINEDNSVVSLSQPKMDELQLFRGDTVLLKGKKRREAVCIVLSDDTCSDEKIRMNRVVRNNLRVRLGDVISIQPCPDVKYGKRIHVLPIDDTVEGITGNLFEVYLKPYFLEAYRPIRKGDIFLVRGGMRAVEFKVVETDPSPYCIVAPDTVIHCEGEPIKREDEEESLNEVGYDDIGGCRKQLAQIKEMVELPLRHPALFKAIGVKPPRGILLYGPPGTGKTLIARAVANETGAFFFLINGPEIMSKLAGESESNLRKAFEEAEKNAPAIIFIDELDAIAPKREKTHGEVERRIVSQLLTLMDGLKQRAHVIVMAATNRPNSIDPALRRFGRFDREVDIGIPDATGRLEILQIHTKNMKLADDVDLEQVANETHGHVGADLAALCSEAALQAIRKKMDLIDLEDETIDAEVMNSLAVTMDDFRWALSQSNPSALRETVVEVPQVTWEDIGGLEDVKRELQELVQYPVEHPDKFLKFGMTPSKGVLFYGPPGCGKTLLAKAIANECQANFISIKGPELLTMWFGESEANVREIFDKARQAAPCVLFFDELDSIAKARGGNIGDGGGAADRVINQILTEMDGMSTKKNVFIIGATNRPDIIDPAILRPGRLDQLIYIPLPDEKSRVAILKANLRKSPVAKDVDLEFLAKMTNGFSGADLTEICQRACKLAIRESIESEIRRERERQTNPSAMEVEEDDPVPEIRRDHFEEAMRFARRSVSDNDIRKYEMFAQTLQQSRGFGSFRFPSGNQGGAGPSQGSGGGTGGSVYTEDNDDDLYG
T7 sequence (P27797 18-417): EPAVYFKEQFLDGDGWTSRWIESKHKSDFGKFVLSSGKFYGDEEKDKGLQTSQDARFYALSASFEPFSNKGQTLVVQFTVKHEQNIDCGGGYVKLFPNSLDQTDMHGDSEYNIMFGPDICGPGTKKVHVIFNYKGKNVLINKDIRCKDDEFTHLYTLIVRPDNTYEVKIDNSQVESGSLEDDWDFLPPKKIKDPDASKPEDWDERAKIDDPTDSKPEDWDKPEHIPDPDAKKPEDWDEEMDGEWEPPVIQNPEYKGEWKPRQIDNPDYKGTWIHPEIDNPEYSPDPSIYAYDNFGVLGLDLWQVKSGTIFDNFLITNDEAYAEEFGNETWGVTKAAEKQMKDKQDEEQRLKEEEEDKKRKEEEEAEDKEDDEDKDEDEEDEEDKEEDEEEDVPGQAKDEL

In the case of `Cn1c2c(c(=N)c3c1CCC3)CCC2` [Compound 1, 4-methyl-2,3,4,5,6,7-hexahydrodicyclopenta[b,e]pyridin-8(1H)-imine], the Difference is 2.227 in assay [1] (Cmpd minus DMSO, -LOG(P-value) 1.20929); 2.177 in [2] (Cmpd minus DMSO, -LOG(P-value) 1.77748); -4.273 in assay [3] (Cmpd minus DMSO, -LOG(P-value) 1.41535); -3.118 in assay [4] (Cmpd minus DMSO, -LOG(P-value) 0.933319); 1.097 in [5] (Cmpd minus DMSO, -LOG(P-value) 0.814851); 2.68 in assay [6] (Cmpd minus DMSO, -LOG(P-value) 1.38004). In addition, the Difference is listed as 3.089 in [7] (Cmpd minus DMSO, -LOG(P-value) 1.31392); -2.957 in assay [8] (Cmpd minus DMSO, -LOG(P-value) 1.07686); 1.036 in assay [9] (Cmpd minus DMSO, -LOG(P-value) 0.742976); 3.82 in assay [10] (Cmpd minus DMSO, -LOG(P-value) 2.60513). The “iBAQ Cmpd” value is 18.6461 and 18.1931 and 16.8577 in assay [1] (replicates 1-3); 17.1233 and 17.0397 and 16.2301 in assay [2] (replicates 1-3); 15.4223 and 14.7351 and 17.7658 in assay [3] (replicates 1-3); 18.4576 and 18.593 and 15.0798 in assay [4] (replicates 1-3); 19.4847 and 18.183 and 18.682 in assay [5] (replicates 1-3); 19.6513 and 20.3325 and 21.9506 in assay [6] (replicates 1-3). The “iBAQ Cmpd” value in [7] (replicates 1-3) was 19.5486 and 19.2952 and 16.8093; in assay [8] (replicates 1-3) it was 18.482 and 14.8891 and 15.1338; in assay [9] (replicates 1-3) it was 16.8685 and 16.1972 and 16.6057; in [10] (replicates 1-3), 19.1705 and 17.8309 and 17.4529.

These data come from article PMC9481570, “A small molecule antagonist of SMN disrupts the interaction between SMN and RNAP II” (Nature Communications, 2022).
